This test addresses T1, CD209 antigen (Homo sapiens, UniProt Q9NNX6).
T1 sequence (Q9NNX6 whole entry): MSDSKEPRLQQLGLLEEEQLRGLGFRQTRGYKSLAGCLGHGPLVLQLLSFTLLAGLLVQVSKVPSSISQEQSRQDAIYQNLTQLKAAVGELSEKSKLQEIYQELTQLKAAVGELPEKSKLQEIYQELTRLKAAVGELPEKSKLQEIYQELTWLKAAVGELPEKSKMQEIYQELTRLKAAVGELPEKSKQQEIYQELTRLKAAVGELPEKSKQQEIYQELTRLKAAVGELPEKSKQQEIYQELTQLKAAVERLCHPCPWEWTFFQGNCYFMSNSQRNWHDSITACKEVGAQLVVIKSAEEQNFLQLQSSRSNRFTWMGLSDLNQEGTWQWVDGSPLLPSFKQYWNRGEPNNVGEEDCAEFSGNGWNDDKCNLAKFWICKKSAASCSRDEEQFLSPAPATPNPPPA
Kind of test: Binding affinity to DC-SIGN (unknown origin).

pKd: −log10 of the molar value.

The compound `CC(=O)N[C@H](C=O)[C@@H](O)[C@H](O)[C@H](O)CO` gave a pKd of 2.06. The value for `C[C@H](O)[C@@H](O)[C@@H](O)[C@H](O)C=O` [L-FUCOSE] was 2.17.

Broadly, the pKd is −log10 of the Kd, conventionally taken in molar units. A low value points to a large Kd.
